Data: US20240000806A1, “METHODS AND MATERIALS FOR INHIBITING CB1 ACTIVITY” (University of Pittsburgh - Of the Commonwealth System of …, priority 2020, published 2024)

Biological target: CB1 (CNR1) (Homo sapiens, UniProt P21554)
Test: cAMP CNR1 Hunter cell line antagonist assay (CB1 assay)
Format: cell-based
Settings: antagonist mode, cAMP CNR1 Hunter cells, EC80 agonist; read-out: CB1 assay, Efficacy (IC50)
Summary of the method: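 Antagonist mode in CNR1 Hunter cells: compound preincubated 30 min at 37 °C, then EC80 agonist for 30 min at 37 °C. cAMP measured by enzyme-fragment complementation chemiluminescence after lysis (1 h) and detection (3 h, room temperature); IC50 fitted from the dose response.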

Sequence of CB1 (CNR1) (P21554 whole entry): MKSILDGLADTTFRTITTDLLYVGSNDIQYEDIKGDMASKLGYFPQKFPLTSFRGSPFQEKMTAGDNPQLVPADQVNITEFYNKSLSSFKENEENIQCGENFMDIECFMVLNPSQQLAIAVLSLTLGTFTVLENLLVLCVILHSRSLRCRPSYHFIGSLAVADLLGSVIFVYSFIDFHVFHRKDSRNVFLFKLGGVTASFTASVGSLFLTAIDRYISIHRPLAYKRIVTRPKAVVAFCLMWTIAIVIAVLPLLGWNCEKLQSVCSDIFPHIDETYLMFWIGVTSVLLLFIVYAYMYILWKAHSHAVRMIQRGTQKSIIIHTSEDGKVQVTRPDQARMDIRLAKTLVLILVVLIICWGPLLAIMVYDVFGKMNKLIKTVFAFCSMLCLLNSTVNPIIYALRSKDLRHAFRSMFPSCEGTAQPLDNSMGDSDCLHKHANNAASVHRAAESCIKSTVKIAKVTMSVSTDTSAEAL

SMILES	IC50 [µM]
COc1ccc(NS(=O)(=O)c2cc3c(cc2Cl)NC(=O)C(C)O3)cc1 (stereo not drawn) [BC19706]	≥ 25
CC(C)CC1Oc2c(cc(Br)cc2S(=O)(=O)Nc2cccc(Cl)c2)NC1=O (stereo not drawn) [BC19775]	≥ 25
CCc1ccc(NS(=O)(=O)c2cc3c(cc2Br)NC(=O)CO3)cc1 [BC19138]	< 1
COc1ccc(NS(=O)(=O)c2cc(Br)cc3c2OC(C)C(=O)N3C)cc1Cl (stereo not drawn) [BC19909]	≥ 25
COc1ccc(NS(=O)(=O)c2cc3c(cc2Br)NC(=O)CO3)cc1Cl [BC19163]	< 1
CCc1cccc(NS(=O)(=O)c2cc(Br)cc3c2OC(C)C(=O)N3C)c1 (stereo not drawn) [BC19900]	≥ 25
COc1ccc(NS(=O)(=O)c2cc3c(cc2Br)NC(=O)CO3)cc1 [BC19137]	< 1
CC1Oc2c(cc(Cl)cc2S(=O)(=O)Nc2ccc(F)cc2Cl)NC1=O (stereo not drawn) [BC19720]	≥ 25
CCC1Oc2cc(S(=O)(=O)NCc3ccc(F)cc3F)c(Br)cc2NC1=O (stereo not drawn) [BC19368]	≥ 25
CC1Oc2c(cc(Cl)cc2S(=O)(=O)Nc2ccccc2)NC1=O (stereo not drawn) [BC19291]	≥ 25
CC1Oc2cc(S(=O)(=O)Nc3ccc(C#N)cc3)c(Cl)cc2NC1=O (stereo not drawn) [BC19729]	< 1
CCC1Oc2c(cc(Br)cc2S(=O)(=O)NCc2ccc(F)cc2F)NC1=O (stereo not drawn) [BC19374]	≥ 25
COc1ccc(NS(=O)(=O)c2cc(S(C)(=O)=O)cc3c2OCC(=O)N3)cc1 [BC19485]	≥ 25
CC(C)c1ccc(NS(=O)(=O)c2cc3c(cc2Cl)NC(=O)CO3)cc1 [BC19136]	< 1
Cc1ccc(NS(=O)(=O)c2cc(Br)cc3c2OC(C)C(=O)N3C)cc1Cl (stereo not drawn) [BC19796]	1 to 25
CC1Oc2c(cc(Cl)cc2S(=O)(=O)Nc2ccc(C(C)C)cc2)NC1=O (stereo not drawn) [BC19705]	1 to 25
O=C1COc2cc(S(=O)(=O)Nc3ccc(OC(F)(F)F)cc3)c(Cl)cc2N1 [BC19164]	< 1
CCC1Oc2cc(S(=O)(=O)NCCc3ccc(OC(F)(F)F)cc3)c(Br)cc2NC1=O (stereo not drawn) [BC19373]	≥ 25
CC1Oc2c(cc(Br)cc2S(=O)(=O)NCCc2ccc(OC(F)(F)F)cc2)NC1=O (stereo not drawn) [BC19364]	1 to 25
CCc1ccc(NS(=O)(=O)c2cc3c(cc2Br)NC(=O)CCO3)cc1 [BC19690]	< 1
Cc1ccc(NS(=O)(=O)c2cc3c(cc2Cl)NC(=O)C(C)O3)cc1 (stereo not drawn) [BC19717]	≥ 25

SMILES	IC50 [µM]
CC1Oc2c(cc(Cl)cc2S(=O)(=O)Nc2ccc(Cl)cc2)NC1=O (stereo not drawn) [BC19697]	≥ 25
CCC1Oc2cc(S(=O)(=O)Nc3ccc(C(C)C)cc3)c(Br)cc2N(C)C1=O (stereo not drawn) [BC19934]	≥ 25
CC1Oc2c(cc(Cl)cc2S(=O)(=O)Nc2ccc(F)cc2)NC1=O (stereo not drawn) [BC19722]	1 to 25
Cc1ccc(NS(=O)(=O)c2cc3c(cc2Br)NC(=O)C(CC(C)C)O3)cc1Cl (stereo not drawn) [BC19768]	1 to 25
O=C1CCOc2cc(S(=O)(=O)Nc3cccc(F)c3)c(Br)cc2N1 [BC19654]	≥ 25
COc1ccc(NS(=O)(=O)c2cc3c(cc2Br)NC(=O)C(CC(C)C)O3)cc1Cl (stereo not drawn) [BC19780]	1 to 25
COc1ccc(NS(=O)(=O)c2cc3c(cc2Cl)NC(=O)C(C)O3)cc1Cl (stereo not drawn) [BC19280]	1 to 25
CCC1Oc2cc(S(=O)(=O)Nc3ccc(Cl)cc3)c(Br)cc2NC1=O (stereo not drawn) [BC19286]	≥ 25
CC(C)CC1Oc2cc(S(=O)(=O)Nc3cccc(Cl)c3)c(Br)cc2NC1=O (stereo not drawn) [BC19776]	≥ 25
CC1Oc2cc(S(=O)(=O)Nc3ccc(F)cc3)c(Cl)cc2NC1=O (stereo not drawn) [BC19721]	< 1
CCS(=O)(=O)c1cc2c(c(S(=O)(=O)Nc3ccc(F)cc3F)c1)OCC(=O)N2 [BC19545]	≥ 25
CCc1cccc(NS(=O)(=O)c2cc(Br)cc3c2OCCNC3=O)c1 [BC19609]	1 to 25
CC1Oc2cc(S(=O)(=O)N3CCOCC3)c(Br)cc2NC1=O (stereo not drawn) [BC19217]	≥ 25
O=C1COc2c(cc(Br)cc2S(=O)(=O)NCc2ccc(OC(F)(F)F)cc2)N1 [BC19385]	≥ 25
CC1Oc2cc(S(=O)(=O)Nc3ccc(F)cc3F)c(Br)cc2N(C)C1=O (stereo not drawn) [BC19799]	≥ 25
Cc1ccc(NS(=O)(=O)c2cc(Cl)cc3c2OCC(=O)N3)cc1Cl [BC19176]	< 1
COc1ccc(NS(=O)(=O)c2cc(Br)cc3c2OCC(=O)N3)cc1 [BC19175]	≥ 25
NS(=O)(=O)c1ccc2c(c1)N1CCCC1C(=O)N2 (stereo not drawn) [BC19300]	≥ 25
Cc1ccc(NS(=O)(=O)c2cc(Br)cc3c2OCCNC3=O)cc1Cl [BC19607]	1 to 25
O=C1COc2cc(S(=O)(=O)NC3CCC(O)CC3)c(Br)cc2N1 (stereo not drawn) [BC19389]	≥ 25
CCC1Oc2cc(S(=O)(=O)Nc3cccc(Cl)c3)c(Cl)cc2NC1=O (stereo not drawn) [BC19751]	< 1

SMILES	IC50 [µM]
CCC1Oc2c(cc(Br)cc2S(=O)(=O)NC2CCC(O)CC2)NC1=O (stereo not drawn) [BC19378]	1 to 25
CC1Oc2cc(S(=O)(=O)Nc3cccc(F)c3)c(Br)cc2N(C)C1=O (stereo not drawn) [BC19903]	1 to 25
O=C1COc2cc(S(=O)(=O)NCCc3ccc(OC(F)(F)F)cc3)c(Br)cc2N1 [BC19387]	≥ 25
CCC1Oc2c(cc(Cl)cc2S(=O)(=O)Nc2ccc(C)c(Cl)c2)NC1=O (stereo not drawn) [BC19746]	1 to 25
O=C(O)c1cc2c(c(NS(=O)(=O)c3ccc(F)c(F)c3)c1)N1CCCC1C(=O)N2 (stereo not drawn) [BC19917]	1 to 25
CC(C)c1ccc(NS(=O)(=O)c2cc(Br)cc3c2OCCNC3=O)cc1 [BC19605]	≥ 25
CC1Oc2c(cc(Br)cc2S(=O)(=O)Nc2ccc(Cl)cc2)N(C)C1=O (stereo not drawn) [BC19791]	≥ 25
O=C1COc2cc(S(=O)(=O)Nc3ccc(C(F)(F)F)cc3Cl)c(Br)cc2N1 [BC19390]	≥ 25
O=C1COc2cc(S(=O)(=O)NCc3ccc(OC(F)(F)F)cc3)c(Br)cc2N1 [BC19392]	≥ 25
CCc1cccc(NS(=O)(=O)c2cc(Cl)cc3c2OC(CC)C(=O)N3)c1 (stereo not drawn) [BC19750]	≥ 25
CCc1ccc(NS(=O)(=O)c2cc3c(cc2Br)NC(=O)C(C)O3)cc1 (stereo not drawn) [BC19216]	< 1
CCCNS(=O)(=O)c1cc2c(cc1Cl)NC(=O)C(CC)O2 (stereo not drawn) [BC19214]	≥ 25
CCC1Oc2c(cc(Br)cc2S(=O)(=O)NCCc2ccc(OC(F)(F)F)cc2)NC1=O (stereo not drawn) [BC19376]	1 to 25
COc1ccc(NS(=O)(=O)c2cc(Br)cc3c2OCCC(=O)N3)cc1Cl [BC19688]	1 to 25
CC(C)(C)C1CCC(NS(=O)(=O)c2cc(Br)cc3c2OCC(=O)N3)CC1 (stereo not drawn) [BC19380]	≥ 25
CC1Oc2c(cc(Br)cc2S(=O)(=O)Nc2ccc(F)c(F)c2)N(C)C1=O (stereo not drawn) [BC19787]	≥ 25
CCc1cccc(NS(=O)(=O)c2cc3c(cc2Br)N(C)C(=O)C(CC)O3)c1 (stereo not drawn) [BC19916]	1 to 25
O=C1NCCOc2c1cc(Br)cc2S(=O)(=O)Nc1ccc(F)cc1F [BC19608]	≥ 25
CCC1Oc2c(cc(Cl)cc2S(=O)(=O)Nc2ccc(F)c(F)c2)NC1=O (stereo not drawn) [BC19736]	≥ 25

More lines, now with the values ahead:

IC50 [µM]	SMILES
≥ 25	CC1Oc2cc(S(=O)(=O)N3CCN(C)CC3)c(Br)cc2NC1=O (stereo not drawn) [BC19219]
1 to 25	CC1Oc2cc(S(=O)(=O)NCCc3ccc(OC(F)(F)F)cc3)c(Br)cc2NC1=O (stereo not drawn) [BC19359]
≥ 25	Cc1ccc(NS(=O)(=O)c2cc(Br)cc3c2OCCNC3=O)cc1 [BC19612]
1 to 25	CCc1cccc(NS(=O)(=O)c2cc3c(cc2Cl)NC(=O)C(CC)O3)c1 (stereo not drawn) [BC19749]
≥ 25	Cc1ccc(NS(=O)(=O)c2cc(Br)cc3c2OCCNC3=O)cc1F [BC19552]
1 to 25	CC1Oc2c(cc(Br)cc2S(=O)(=O)N2CCN(C)CC2)NC1=O (stereo not drawn) [BC19228]
≥ 25	CCC1Oc2c(cc(Br)cc2S(=O)(=O)Nc2ccc(C)c(F)c2)N(C)C1=O (stereo not drawn) [BC19923]
≥ 25	Cc1ccc(NS(=O)(=O)c2cc(Cl)cc3c2OC(C)C(=O)N3)cc1 (stereo not drawn) [BC19718]
1 to 25	CCOc1ccc(NS(=O)(=O)c2cc(Cl)cc3c2OC(C)C(=O)N3)cc1 (stereo not drawn) [BC19355]
≥ 25	COc1ccc(NS(=O)(=O)c2cc(S(C)(=O)=O)cc3c2OCC(=O)N3)cc1Cl [BC19429]
≥ 25	O=C1NCCOc2c1cc(Br)cc2S(=O)(=O)Nc1ccc(F)cc1Cl [BC19613]
≥ 25	CS(=O)(=O)c1cc2c(c(S(=O)(=O)Nc3cccc(Cl)c3)c1)OCC(=O)N2 [BC19427]
≥ 25	CN1CC(=O)Nc2ccc(S(=O)(=O)N3CCCC3)cc21 [BC19181]
1 to 25	Cc1ccc(Cl)cc1NS(=O)(=O)c1cc(Cl)cc2c1OCC(=O)N2 [BC19170]
≥ 25	CC1Oc2c(cc(Br)cc2S(=O)(=O)Nc2ccccc2)N(C)C1=O (stereo not drawn) [BC19789]
1 to 25	CCC1Oc2cc(S(=O)(=O)Nc3cccc(C(C)=O)c3)c(Cl)cc2NC1=O (stereo not drawn) [BC19282]
≥ 25	O=C1NCCOc2c1cc(Br)cc2S(=O)(=O)Nc1ccccc1 [BC19553]
≥ 25	CC(C)NC(=O)N1c2cc(S(=O)(=O)N3CCCC3)ccc2NC(=O)C1C (stereo not drawn) [BC19298]
≥ 25	Cc1c(Cl)cc2c(c1S(=O)(=O)Nc1ccc(OC(F)(F)F)cc1)OCC(=O)N2 [BC19490]
≥ 25	CC1Oc2cc(S(=O)(=O)Nc3ccc(F)c(F)c3)c(Br)cc2NC1=O (stereo not drawn) [BC19284]
1 to 25	CC1Oc2c(cc(Br)cc2S(=O)(=O)Nc2cccc(Cl)c2)N(C)C1=O (stereo not drawn) [BC19904]
1 to 25	CC1Oc2cc(S(=O)(=O)NCc3ccc(OC(F)(F)F)cc3)c(Br)cc2NC1=O (stereo not drawn) [BC19357]
≥ 25	CCc1cccc(NS(=O)(=O)c2cc(Cl)cc3c2OC(C)C(=O)N3)c1 (stereo not drawn) [BC19712]
≥ 25	CCC1Oc2cc(S(=O)(=O)Nc3ccc(OC)cc3)c(Br)cc2N(C)C1=O (stereo not drawn) [BC19936]
1 to 25	CC(C)CC(=O)N1c2cc(S(=O)(=O)N3CCCC3)ccc2NC(=O)C1C (stereo not drawn) [BC19184]
1 to 25	CC(C)CNS(=O)(=O)c1cc2c(cc1Br)NC(=O)C(C)O2 (stereo not drawn) [BC19218]
< 1	O=C1COc2c(cc(Br)cc2S(=O)(=O)Nc2ccc(F)cc2F)N1 [BC19178]
≥ 25	O=C1CCOc2cc(S(=O)(=O)Nc3cccc(Cl)c3)c(Br)cc2N1 [BC19655]
1 to 25	CCC1Oc2cc(S(=O)(=O)Nc3ccc(F)cc3F)c(Cl)cc2NC1=O (stereo not drawn) [BC19747]
